Where two headings read alike, the source gives them in different places.
What was measured:
HIV-1 wild type = test: microbe, parasite or virus in culture; type: cell-based
[1] = test system: HIV-1 double mutant K103N/Y181C; test: microbe, parasite or virus in culture; type: cell-based
[2] = target: T1, HIV-1 RT double mutant K103N/Y181C (Human immunodeficiency virus type 1 group M subtype B, UniProt P03366, K702N/Y780C); test: biochemical
T1 construct: HIV-1 wild type reverse transcriptase as well as the clinically significant double mutant K103N/Y181C
Procedure: (§1) Utilizing the Reverse Transcriptase (RT) Assay described below, compounds were tested for their ability to inhibit the RNA-dependent DNA polymerase activity of HIV-1 RT. Certain specific compounds described in the Examples and in Tables 1-4, were so tested. The results of this testing appear in Table 5 as ranges of IC50 (nM) and EC50 (nM).
(§2) Reverse Transcriptase (RT) Assays

[3] = target: T2, HIV-1 wild type reverse transcriptase (Human immunodeficiency virus type 1 group M subtype B, UniProt P03366); test: biochemical; settings: wild type RT; read-out: IC50 WT RT
T2 construct: HIV-1 wild type reverse transcriptase
Procedure: as §1, §2

[4] = Human immunodeficiency virus 1, read-out: EC50 WT RT (nM)
[5] = Human immunodeficiency virus 1, read-out: EC50 K103N/Y181C (nM)
[6] = Human immunodeficiency virus 1, wild type, read-out: EC50 WT RT
[7] = wild type, read-out: EC50 WT RT
[8] = double mutant K103N/Y181C, read-out: EC50 K103N/Y181C
[9] = RT double mutant K103N/Y181C, read-out: IC50 K103N/Y181C

SMILES	EC50 (HIV-1 wild type; [4]) [nM]	EC50 [1, 5] [nM]	IC50 [2] [µM]	IC50 [3] [µM]	EC50 (HIV-1 wild type; [6]) [nM]	EC50 (HIV-1 wild type; [7]) [nM]	EC50 [1, 8] [nM]	IC50 [2, 9] [µM]
CCN1c2ncc(CCOc3ccc(NC(=O)Nc4ccc(C(=O)O)cc4)cc3C)cc2C(=O)N(C)c2cccnc21 [Entry 3031]	10 to 50	> 50	< 0.05	< 0.05	–	–	–	–
CCN1c2ncc(CCOc3ccc(C(=O)Nc4nc(CC(=O)O)cs4)cc3C)cc2C(=O)N(C)c2cccnc21 [Entry 3007]	–	> 50	< 0.05	< 0.05	10 to 50	–	–	–
CCN1c2ncc(CCOc3ccc(C(=O)Nc4cccc(CC(=O)O)c4)cc3C)cc2C(=O)N(C)c2cccnc21 [Entry 3010]	10 to 50	10 to 50	< 0.05	< 0.05	–	–	–	–
CCN1c2ncc(CCOc3ccc(-c4ccc(C(=O)O)cc4)cc3C)cc2C(=O)N(C)c2cccnc21 [Entry 1003]	–	–	–	< 0.05	–	< 10	< 10	< 0.05
CCN1c2ncc(CCOc3ccc(C(=O)NNC)cc3C)cc2C(=O)N(C)c2cccnc21 [Entry 4016]	–	< 10	< 0.05	< 0.05	< 10	–	–	–
CCN1c2ncc(CCOc3ccc(NC(=O)c4ccc(C(=O)O)cc4)cc3C)cc2C(=O)N(C)c2cccnc21 [Entry 3032]	10 to 50	> 50	< 0.05	< 0.05	–	–	–	–
CCN1c2ncc(CCOc3ccc(-c4cccc(CC(=O)O)c4)cc3)cc2C(=O)N(C)c2cccnc21 [Entry 1014]	–	–	–	< 0.05	–	< 10	10 to 50	> 0.1
CCN1c2ncc(CCOc3ccc(C(=O)NCC4(C(=O)O)CCCC4)cc3C)cc2C(=O)N(C)c2cccnc21 [Entry 4018]	–	10 to 50	> 0.1	< 0.05	< 10	–	–	–
CCN1c2ncc(CCOc3ccc(-c4cccc(CC(=O)O)c4)cc3C)cc2C(=O)N(C)c2cccnc21 [Entry 1015]	–	–	–	< 0.05	–	< 10	< 10	< 0.05
CCN1c2ncc(CCOc3ccc(-c4ccccc4)cc3)cc2C(=O)N(C)c2cccnc21 [Entry 1101]	–	–	–	< 0.05	–	< 10	> 50	0.05 to 0.1
CCN1c2ncc(CCOc3ccc(-c4c[nH]cn4)cc3C)cc2C(=O)N(C)c2cccnc21 [Entry 1094, 11-Ethyl-5,11-dihydro-8-{2-[4-(1H-imidazol-4-yl)-2-methylphenoxy]ethyl}-5-methyl-6H-dipyrido[3,2-b:2′,3′-e][1,4]diazepin-6-one]	–	< 10	< 0.05	< 0.05	< 10	–	–	–
CCN1c2ncc(CCOc3ccc(-c4ccc(CC(=O)O)cc4)cc3CO)cc2C(=O)N(C)c2cccnc21 [Entry 1104]	–	–	–	< 0.05	–	< 10	10 to 50	< 0.05
CCN1c2ncc(CCOc3ccc(C(=O)Nc4ccc(C(=O)O)cc4)cc3C)cc2C(=O)Nc2c(C)ccnc21 [Entry 3017]	–	–	–	< 0.05	–	10 to 50	> 50	< 0.05
CCN1c2ncc(CCOc3ccc(S(=O)(=O)Nc4ccc(C(=O)O)cc4)cc3C)cc2C(=O)N(C)c2cccnc21 [Entry 3030]	–	–	–	< 0.05	–	> 50	> 50	< 0.05
CCN1c2ncc(CCOc3ccc(Nc4ccc(C(=O)O)cc4)cc3C)cc2C(=O)N(C)c2cccnc21 [Entry 3022, 4-{{4-[2-(11-Ethyl-6,11-dihydro-5-methyl-6-oxo-5H-dipyrido[3,2-b:2′,3′-e][1,4]diazepin-8-yl)ethoxy]-3-methylphenyl}amino}benzoic acid]	< 10	10 to 50	< 0.05	< 0.05	–	–	–	–
CCN1c2ncc(CCOc3ccc(-c4ccc(CC(=O)O)cc4)cc3C)cc2C(=O)N(C)c2cccnc21 [Entry 1008]	–	–	–	< 0.05	–	< 10	< 10	< 0.05
CCN1c2ncc(CCOc3ccc(-c4cc(C(=O)O)on4)cc3C)cc2C(=O)N(C)c2cccnc21 [Entry 1041, 3-{4-[2-(11-Ethyl-6,11-dihydro-5-methyl-6-oxo-5H-dipyrido[3,2-b:2′,3′-e][1,4]diazepin-8-yl)ethoxy]-3-methylphenyl}-5-isoxazolecarboxylic acid]	–	> 50	< 0.05	< 0.05	> 50	–	–	–

SMILES	EC50 (HIV-1 wild type; [4]) [nM]	EC50 [1, 5] [nM]	IC50 [2] [µM]	IC50 [3] [µM]	EC50 (HIV-1 wild type; [6]) [nM]	EC50 (HIV-1 wild type; [7]) [nM]	EC50 [1, 8] [nM]	IC50 [2, 9] [µM]
CCN1c2ncc(CCOc3ccc(Nc4cccc(CC(=O)O)c4)cc3C)cc2C(=O)N(C)c2cccnc21 [Entry 3024]	< 10	< 10	< 0.05	< 0.05	–	–	–	–
CCN1c2ncc(CCOc3ccc(C(=O)Nc4ccc(C(=O)O)cc4)cc3C)cc2C(=O)N(C)c2cccnc21 [Entry 3001, 4-{{4-[2-(11-Ethyl-6,11-dihydro-5-methyl-6-oxo-5H-dipyrido[3,2-b:2′,3′-e][1,4]diazepin-8-yl)ethoxy]-3-methylbenzoyl}amino}benzoic acid]	< 10	10 to 50	< 0.05	< 0.05	–	–	–	–
CCN1c2ncc(CCOc3ccc(NC(=O)CCC(=O)O)cc3C)cc2C(=O)N(C)c2cccnc21 [Entry 4006]	–	> 50	0.05 to 0.1	< 0.05	10 to 50	–	–	–
CCN1c2ncc(CCOc3ccc(C(=O)Nc4cccc[n+]4[O-])cc3C)cc2C(=O)Nc2c(C)ccnc21 [Entry 3019]	–	–	–	< 0.05	–	< 10	< 10	0.05 to 0.1
CCN1c2ncc(CCOc3ccc(-c4ccc(C(=O)O)o4)cc3C)cc2C(=O)N(C)c2cccnc21 [Entry 1046, 5-{4-[2-(11-Ethyl-6,11-dihydro-5-methyl-6-oxo-5H-dipyrido[3,2-b:2′,3′-e][1,4]diazepin-8-yl)ethoxy]-3-methylphenyl}-2-furanecarboxylic acid]	–	> 50	> 0.1	< 0.05	< 10	–	–	–
CCN1c2ncc(CCOc3ccc(-c4ccc(C(=O)O)cc4)cc3F)cc2C(=O)N(C)c2cccnc21 [Entry 1004]	–	–	–	< 0.05	–	< 10	> 50	> 0.1
CCN1c2ncc(CCOc3ccc(C(=O)NS(C)(=O)=O)cc3C)cc2C(=O)N(C)c2cccnc21 [Entry 4013, 4-[2-(11-Ethyl-6,11-dihydro-5-methyl-6-oxo-5H-dipyrido[3,2-b:2′,3′-e][1,4]diazepin-8-yl)ethoxy]-3-methyl-N-(methylsulfonyl)benzamide]	–	> 50	> 0.1	< 0.05	10 to 50	–	–	–
CCN1c2ncc(CCOc3ccc(-c4cccc(C(=O)O)c4)cc3)cc2C(=O)N(C)c2cccnc21 [Entry 1012]	–	–	–	< 0.05	–	< 10	10 to 50	> 0.1
CCN1c2ncc(CCOc3ccc(C(=O)Nc4ccc(CC(=O)O)cc4)cc3C)cc2C(=O)N(C)c2cccnc21 [Entry 3005]	< 10	10 to 50	< 0.05	< 0.05	–	–	–	–
CCN1c2ncc(CCOc3ccc(C(=O)NC(C)(C)CC(=O)O)cc3C)cc2C(=O)N(C)c2cccnc21 [Entry 4017]	–	> 50	> 0.1	< 0.05	< 10	–	–	–
CCN1c2ncc(CCOc3ccc(-c4cccc(C(=O)O)c4)cc3C)cc2C(=O)N(C)c2cccnc21 [Entry 1013, 4′-[2-(11-Ethyl-6,11-dihydro-5-methyl-6-oxo-5H-dipyrido[3,2-b:2′,3′-e][1,4]diazepin-8-yl)ethoxy]-3′-methyl-[1,1′-biphenyl]-3-carboxylic acid]	< 10	10 to 50	< 0.05	< 0.05	–	–	–	–
CCN1c2ncc(CCOc3ccc(C(=O)Nc4cccn(CC(=O)O)c4=O)cc3C)cc2C(=O)N(C)c2cccnc21 [Entry 3012]	–	> 50	0.05 to 0.1	< 0.05	> 50	–	–	–
CCN1c2ncc(CCOc3ccc(NC(=O)c4ccccc4C(=O)O)cc3C)cc2C(=O)N(C)c2cccnc21 [Entry 3033]	< 10	10 to 50	> 0.1	< 0.05	–	–	–	–
CCN1c2ncc(CCOc3ccc(NC(=O)CC(C)(C)C(=O)O)cc3C)cc2C(=O)N(C)c2cccnc21 [Entry 4008]	–	10 to 50	> 0.1	< 0.05	< 10	–	–	–
CCN1c2ncc(CCOc3ccc(C(=O)c4ccc(C(=O)O)cc4)cc3C)cc2C(=O)N(C)c2cccnc21 [Entry 3027]	< 10	10 to 50	0.05 to 0.1	< 0.05	–	–	–	–
CCN1c2ncc(CCOc3ccc(-c4cocn4)cc3C)cc2C(=O)N(C)c2cccnc21 [Entry 1099, 11-Ethyl-5,11-dihydro-5-methyl-8-{2-[2-methyl-4-(4-oxazolyl)phenoxy]ethyl}-6H-dipyrido[3,2-b:2′,3′-e][1,4]diazepin-6-one]	–	< 10	< 0.05	< 0.05	< 10	–	–	–
CCN1c2ncc(CCOc3ccc(NC(=O)CC4(C(=O)O)CCCC4)cc3C)cc2C(=O)N(C)c2cccnc21 [Entry 4007]	–	< 10	> 0.1	< 0.05	< 10	–	–	–

— patent publication US6806265B2, “Non-nucleoside reverse transcriptase inhibitors” (priority 2002, dated 2004)
